# Columns and labels:
# Test in all cases: combination Emax (second highest fraction inhibited in the dose matrix, 72 h); higher = more inhibition; extreme values may be limits of the assay
# [1] = test system: 8505C (Thyroid Gland Carcinoma)
# Procedure, shortened: (§1)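 Cell lines grown in DMEM/F12 or RPMI with 10% FBS were plated in 1536-well plates and held 24 hours at 37°C, 5% CO2 before 72 hours of exposure to two-drug dose matrices, with DMSO typically at 0.2%. CellTiter-Glo 2.0 luminescence gave viability, which was converted to inhibition. Vehicle wells were set to 0 and blank wells to 1. Combination Emax is the second-highest inhibition in the matrix, and Bliss excess is the observed combination effect minus the expected EA + EB − EA·EB, where EA and EB are the single-agent effects.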
# [2] = test system: KP-3 (Pancreatic Carcinoma)
# Procedure, shortened: as §1
# [3] = test system: NCI-H3122 (Lung Adenocarcinoma)
# Procedure, shortened: as §1
# [4] = test system: MN-60 (B-Lymphoblastic Leukemia)
# Procedure, shortened: as §1
# SJSA-1 (Osteosarcoma) = test system: SJSA-1 (Osteosarcoma)
# Procedure, shortened: as §1
# [5] = test system: MOLM-13 (Acute Myeloid Leukemia)
# Procedure, shortened: as §1
# [6] = test system: SUP-B15 (B-Lymphoblastic Leukemia)
# Procedure, shortened: as §1
# G-361 (Melanoma) = test system: G-361 (Melanoma)
# Procedure, shortened: as §1
# [7] = test system: NCI-H661 (Non-Small Cell Lung Carcinoma)
# Procedure, shortened: as §1
# [8] = test system: IM-95 (Gastric Carcinoma)
# Procedure, shortened: as §1
# NCI-H2731 (Mesothelioma) = test system: NCI-H2731 (Mesothelioma)
# Procedure, shortened: as §1
# [9] = test system: RPMI-8226 (Plasma Cell Myeloma)
# Procedure, shortened: as §1
# [10] = test system: NCI-H929 (Plasma Cell Myeloma)
# Procedure, shortened: as §1
# [11] = test system: KYSE-270 (Esophageal Squamous Cell Carcinoma)
# Procedure, shortened: as §1
# [12] = test system: MOG-G-CCM (Low Grade Glioma)
# Procedure, shortened: as §1
# [13] = test system: ESO51 (Esophageal Adenocarcinoma)
# Procedure, shortened: as §1
# [14] = test system: SK-GT-2 (Gastric Carcinoma)
# Procedure, shortened: as §1
# [15] = test system: KMS-12-BM (Plasma Cell Myeloma)
# Procedure, shortened: as §1
# [16] = test system: COR-L279 (Small Cell Lung Carcinoma)
# Procedure, shortened: as §1
# [17] = test system: KU812 (Chronic Myelogenous Leukemia)
# Procedure, shortened: as §1
Structure (SMILES),combination Emax [1],combination Emax [2],combination Emax [3],combination Emax [4],combination Emax (SJSA-1 (Osteosarcoma)),combination Emax [5],combination Emax [6],combination Emax (G-361 (Melanoma)),combination Emax [7],combination Emax [8],combination Emax (NCI-H2731 (Mesothelioma)),combination Emax [9],combination Emax [10],combination Emax [11],combination Emax [12],combination Emax [13],combination Emax [14],combination Emax [15],combination Emax [16],combination Emax [17]
"Cc1c2c(nn1C)CSCc1cc(n(C)n1)CSc1cc(c3ccccc3c1)OCCCc1c(C(=O)O)n(C)c3c-2c(Cl)ccc13 [AZD5991] + CC1(C)CCC(CN2CCN(c3ccc(C(=O)NS(=O)(=O)c4ccc(NCC5CCOCC5)c([N+](=O)[O-])c4)c(Oc4cnc5[nH]ccc5c4)c3)CC2)=C(c2ccc(Cl)cc2)C1 [Venetoclax] (first compound max 1 µM, 7x7, partner max 1 µM)",0.135,0.129,0.275,0.323,0.296,1,1,0.968,0.561,0.837,0.0671,1,1,0.822,0.433,0.187,0.198,1,0.244,0.902
"Cc1cc2ncnn2cc1Nc1ncc2c(n1)n(C1CCOCC1)c(=O)n2C [AZD7648] + C[C@@H]1COCCN1C2=NC(=NC(=C2)C3(CC3)[S@](=N)(=O)C)C4=C5C=CNC5=NC=C4 [AZD6738] (first compound max 10 µM, 7x7, partner max 10 µM)",0.361,0.296,0.751,0.427,0.435,0.998,0.848,0.45,0.56,0.317,0.381,0.855,0.846,0.717,0.577,0.744,0.216,0.926,0.677,0.769
"CC1(C)CCC(CN2CCN(c3ccc(C(=O)NS(=O)(=O)c4ccc(NCC5CCOCC5)c([N+](=O)[O-])c4)c(Oc4cnc5[nH]ccc5c4)c3)CC2)=C(c2ccc(Cl)cc2)C1 [Venetoclax] + C1CN(CCC1(C(=O)N[C@@H](CCO)C2=CC=C(C=C2)Cl)N)C3=NC=NC4=C3C=CN4 [Capivasertib] (first compound max 1 µM, 7x7, partner max 3 µM)",0.139,0.137,0.362,0.293,0.31,1,1,0.159,0.192,0.398,0.27,0.172,0.997,0.711,0.348,0.11,0.162,1,0.418,0.48
"CN(C)CCCOc1ccc(-c2ccc3ncc4c(c3c2)n(C2CCOCC2)c(=O)n4C)cn1 [AZD0156] + CCN(CCO)CCCOc1ccc2c(Nc3cc(CC(=O)Nc4cccc(F)c4)[nH]n3)ncnc2c1 [AZD2811] (first compound max 1 µM, 7x7, partner max 1 µM)",0.102,0.0612,0.446,0.207,0.123,0.983,0.896,0.256,0.0442,0.438,0.144,0.556,0.815,0.0944,0.367,0.163,0.0747,0.495,0.776,0.584
"CC1(C)CCC(CN2CCN(c3ccc(C(=O)NS(=O)(=O)c4ccc(NCC5CCOCC5)c([N+](=O)[O-])c4)c(Oc4cnc5[nH]ccc5c4)c3)CC2)=C(c2ccc(Cl)cc2)C1 [Venetoclax] + Cc1cc2ncnn2cc1Nc1ncc2c(n1)n(C1CCOCC1)c(=O)n2C [AZD7648] (first compound max 1 µM, 7x7, partner max 10 µM)",0.187,0.13,0.387,0.299,0.291,0.956,1,0.152,0.16,0.155,0.157,0.438,0.812,0.675,0.303,0.131,0.155,1,0.372,0.489
"Cn1cnc2c(F)c(Nc3ccc(Br)cc3Cl)c(C(=O)NOCCO)cc21 [Selumetinib] + CCN(CCO)CCCOc1ccc2c(Nc3cc(CC(=O)Nc4cccc(F)c4)[nH]n3)ncnc2c1 [AZD2811] (first compound max 10 µM, 7x7, partner max 1 µM)",0.388,0.202,0.653,0.342,0.384,0.999,1,0.798,0.0527,0.519,0.201,0.446,0.698,0.295,0.457,0.454,0.173,0.397,0.765,0.951
"COc1nnc2ccc(N3CCC(c4ccc(OCCN5CCN(C)C(=O)[C@H]5C)cc4)CC3)nn12 [AZD5153] + CC1(C)CCC(CN2CCN(c3ccc(C(=O)NS(=O)(=O)c4ccc(NCC5CCOCC5)c([N+](=O)[O-])c4)c(Oc4cnc5[nH]ccc5c4)c3)CC2)=C(c2ccc(Cl)cc2)C1 [Venetoclax] (first compound max 1 µM, 7x7, partner max 1 µM)",0.419,0.21,0.633,0.692,0.546,1,1,0.617,0.264,0.333,0.432,0.8,0.951,0.547,0.54,0.581,0.256,1,0.663,0.924
"CS(=O)(=O)CCNCc1ccc(-c2ccc3ncnc(Nc4ccc(OCc5cccc(F)c5)c(Cl)c4)c3c2)o1 [Lapatinib] + C[C@@H](Oc1cc(-c2cnn(C3CCNCC3)c2)cnc1N)c1c(Cl)ccc(F)c1Cl [Crizotinib] (first compound max 10 µM, 7x7, partner max 10 µM)",0.721,0.557,0.938,0.834,0.908,0.996,0.963,0.972,0.703,0.854,0.921,0.679,0.97,0.967,0.745,0.997,0.995,0.965,0.953,0.999
"Cc1cc2ncnn2cc1Nc1ncc2c(n1)n(C1CCOCC1)c(=O)n2C [AZD7648] + CCN(CCO)CCCOc1ccc2c(Nc3cc(CC(=O)Nc4cccc(F)c4)[nH]n3)ncnc2c1 [AZD2811] (first compound max 10 µM, 7x7, partner max 1 µM)",0.212,0.237,0.548,0.185,0.359,1,0.875,0.359,0.308,0.424,0.409,0.392,0.838,0.183,0.445,0.227,0.198,0.574,0.757,0.66
"CN(CCO)CC[C@H](CSc1ccccc1)Nc1ccc(S(=O)(=O)NC(=O)c2ccc(N3CCC([C@@H](O)c4ccccc4-c4ccc(Cl)cc4)CC3)cc2)cc1S(=O)(=O)C(F)(F)F [AZD4320] + CCN(CCO)CCCOc1ccc2c(Nc3cc(CC(=O)Nc4cccc(F)c4)[nH]n3)ncnc2c1 [AZD2811] (first compound max 1 µM, 7x7, partner max 1 µM)",0.369,0.0781,0.269,0.238,0.335,1,1,0.41,0.0831,0.859,0.492,0.986,0.227,0.113,0.773,0.233,0.554,1,1,0.885
"Cc1cc2ncnn2cc1Nc1ncc2c(n1)n(C1CCOCC1)c(=O)n2C [AZD7648] + CN(C)CCCOc1ccc(-c2ccc3ncc4c(c3c2)n(C2CCOCC2)c(=O)n4C)cn1 [AZD0156] (first compound max 10 µM, 7x7, partner max 1 µM)",0.189,0.159,0.423,0.201,0.456,0.523,0.174,0.217,0.237,0.303,0.274,0.248,0.855,0.143,0.256,0.192,0.159,0.49,0.4,0.467
"NC1(C(=O)N[C@@H](CCO)c2ccc(Cl)cc2)CCN(c2ncnc3[nH]ccc23)CC1 [Capivasertib] + Cn1cnc2c(F)c(Nc3ccc(Br)cc3Cl)c(C(=O)NOCCO)cc21 [Selumetinib] (first compound max 10 µM, 7x7, partner max 10 µM)",0.5,0.417,0.882,0.188,0.658,0.986,0.805,0.83,0.427,0.502,0.306,0.43,1,0.476,0.548,0.624,0.497,0.427,0.551,0.983

# — the supplement of paper PMC11061612
